Measurements reported in patent publication US10407445B2, “Hepatitis C virus inhibitors” (ENANTA PHARMACEUTICALS, INC., priority 2013, dated 2019).

Columns and labels:
Format in all cases: cell-based
HCV GT 1a replicon = experiment: HCV replicon assay, stable GT 1a replicon (Renilla luciferase); details: Hepatitis C virus, GT1A; HCV GT 1a replicon, 72 h; read-out: EC50 1a
Procedure: (§1) The activity of compounds was determined against HCV replicons representing genotypes (GT) 1a, 1b, 2a, and 3a. To generate stable Huh-7.5-based cell lines, HCV replicons were engineered to express the Renilla luciferase reporter (hRluc) fused to the neomycin phosphotransferase (Neo) gene. GT2a and GT3a HCV replicons were based on the JFH-1 subgenomic replicon (Kato et al. 2003 Gastroenterology, 125:1808-1817), in which the NS5A gene was replaced with that of strains J6 and S52 (GT2a and G3a, respectively). The activity of compounds against GT1a replicons encoding NS5A mutations (M28T, Q30R, L31M, Y93C, and Y93H) was also determined in a transient replication assay. The parental GT1a and GT2a replicons (pH/SG-Neo(L+I) and pSG-Neo-JFH1, respectively) were licensed from Apath LLC (Saint Louis, Mo.). The parental GT 1b replicon (pFKi389lucubineo_3_3′_ET) was licensed from ReBLikon GmbH (Germany). HCV replicons were constructed by standard molecular biology techniques described below. All replicon constructs were verified by restriction enzyme digestion and DNA sequencing.
pH/SG-Neo(L+I) was modified to add the firefly luciferase reporter gene and additional adaptive mutations by replacing the pH/SG-Neo(L+I) NS3-NS5A coding region with the corresponding sequence of pH77-S, creating pH/SG-lucubineo-H77S as described (Borawski J et al. 2009, J Virol 83: 10058-10074). Subsequently, the firefly luciferase-Neo cassette was replaced with the hRluc-Neo cassette. To create a unique cloning site, the NotI restriction site in NS5B was removed using QuickChange II XL Site-Directed Mutagenesis Kit (Agilent) and the following primers: NotI KO Fwd 5′-CTCAAACTCACTCCAATAGCTGCCGCTGGCCGGCTGGAC-3′(G→T mutation removing NotI site underlined) (SEQ. ID No. 1) and NotI KO Rev 5′-GTCCAGCGGGCCAGCGGCAGCTATTGGAGTGAGTTTGAG-3′(C→A mutation removing NotI site underlined) (SEQ. ID No. 2). The resulting vector, pH/SG-lucubineo-H775-NotIKO, was sequenced to confirm the NS5B gene. The hRluc-Neo cassette was PCR amplified from pF9 cytomegalovirus (CMV) hRluc-Neo Flexi(R) (Promega) using Accuprime Super Mix II (Invitrogen) and the following primers, which introduce restriction sites: […]
The amplification product was subcloned into pCR2.1-TOPO (Invitrogen). The resulting plasmid was digested with AscI and NotI, and the excised hRluc-Neo fragment was ligated using the Promega Rapid Ligation Kit (Promega) into pH/SG-lucubineo-H775-NotIKO digested with the same enzymes.
Stable HCV replicon cell lines were grown in complete media (Dulbecco's modified Eagle medium [DMEM], 2 mM L-glutamine, 0.1 mM essential amino acids, 1 mM sodium pyruvate, 10% heat inactivated fetal bovine serum) with the addition 500 μg/ml […] (G418). Huh7-lunet cells were maintained in the same medium without the addition of G418. Cells were routinely passaged at a dilution of 1:4 two times a week. The assay medium for both luciferase reporter HCV replicon and cytotoxicity assays used phenol red-free DMEM and lacked G418. For each stable replicon assay, a sixteen point half-log dilution series of compound was stamped (0.5 ul compound per well) into three replica 384-well plates, to which cells were added directly (4000 cells/well). For the transient replication assay, Huh7-lunet cells in ice-cold phosphate buffered saline (PBS) were electroporated (BioRad electroporator; 950 uF, 270V) with 10 ug purified in vitro transcribed HCV replicon RNA, followed by resuspension in complete media and plating (8000 cells/well) into compound stamped 384-well plates. Luciferase activity of compound-treated cells was measured relative to DMSO-treated cells after 72 h incubation using RENILLA-GLO™ Luciferase Assay (Promega). Cytotoxicity (CC50) in the GT1b replicon cell line was analyzed using CELL TITER-GLO™ (Promega). […]

HCV GT 1b replicon = experiment: HCV replicon assay, stable GT 1b replicon (Renilla luciferase); details: Hepatitis C virus, GT1B, 72 h
Procedure: as §1
The hRluc-Neo cassette was PCR amplified from pF9 cytomegalovirus (CMV) hRluc-Neo Flexi(R) (Promega) using Accuprime Super Mix II (Invitrogen) and the following primers, which introduce restriction sites: […]
The amplification product was subcloned into pCR2.1-TOPO (Invitrogen). The resulting plasmid was digested with AscI and NotI, and the excised hRluc-Neo fragment was ligated using the Roche Quick Ligation Kit (Roche) into pFKi389lucubineo_3_3′_ET digested with the same enzymes.
Stable HCV replicon cell lines were grown in complete media (Dulbecco's modified Eagle medium [DMEM], 2 mM L-glutamine, 0.1 mM essential amino acids, 1 mM sodium pyruvate, 10% heat inactivated fetal bovine serum) with the addition 500 μg/ml […] (G418). Huh7-lunet cells were maintained in the same medium without the addition of G418. Cells were routinely passaged at a dilution of 1:4 two times a week. The assay medium for both luciferase reporter HCV replicon and cytotoxicity assays used phenol red-free DMEM and lacked G418. For each stable replicon assay, a sixteen point half-log dilution series of compound was stamped (0.5 ul compound per well) into three replica 384-well plates, to which cells were added directly (4000 cells/well). For the transient replication assay, Huh7-lunet cells in ice-cold phosphate buffered saline (PBS) were electroporated (BioRad electroporator; 950 uF, 270V) with 10 ug purified in vitro transcribed HCV replicon RNA, followed by resuspension in complete media and plating (8000 cells/well) into compound stamped 384-well plates. Luciferase activity of compound-treated cells was measured relative to DMSO-treated cells after 72 h incubation using RENILLA-GLO™ Luciferase Assay (Promega). Cytotoxicity (CC50) in the GT1b replicon cell line was analyzed using CELL TITER-GLO™ (Promega).
The compounds of the present invention can be effective against the HCV 1b genotype. It should also be understood that the compounds of the present invention can inhibit multiple genotypes of HCV. In one embodiment compound of the present invention are active against the 1a, 1b, 2a, 2b, 3a, 4a, and 5a genotypes. In another embodiment compound of the present invention are active against the HCV resistant mutants. […] EC50s are in pM against HCV GT 1a and GT 1b; and nM against GT 2a-J6, GT 3a and GT1a resistant variants (M28T, Q30R, L31V, Y93C and Y93H).

[1] = system: GT1a replicon encoding NS5A mutation M28T; experiment: Transient replication assay, GT1a replicon with NS5A mutation M28T; details: Hepatitis C virus, read-out: EC50 1a M28T
[2] = system: GT1a replicon encoding NS5A mutation Q30R; experiment: Transient replication assay, GT1a replicon with NS5A mutation Q30R; details: Hepatitis C virus, read-out: EC50 1a Q30R
[3] = system: GT1a replicon encoding NS5A mutation L31V; experiment: Transient replication assay, GT1a replicon with NS5A mutation L31V; details: Hepatitis C virus, read-out: EC50 1a L31V
[4] = system: GT1a replicon encoding NS5A mutation Y93C; experiment: Transient replication assay, GT1a replicon with NS5A mutation Y93C; details: Hepatitis C virus, read-out: EC50 1a Y93C
[5] = system: GT1a replicon encoding NS5A mutation Y93H; experiment: Transient replication assay, GT1a replicon with NS5A mutation Y93H; details: Hepatitis C virus, read-out: EC50 1a Y93H

SMILES	EC50 (HCV GT 1a replicon)	EC50 (HCV GT 1b replicon)	EC50 [1]	EC50 [2]	EC50 [3]	EC50 [4]	EC50 [5]
COC(=O)N[C@H](C(=O)N1[C@H](c2ncc(-c3ccc(-c4ccc(-c5cnc([C@@H]6C[C@@]7(CCCOC7)CN6C(=O)[C@@H](NC(=O)OC)C6C[C@@H](C)O[C@H](C)C6)[nH]5)cc4)cc3)[nH]2)C[C@@H]2CCC[C@@H]21)C(C)C (some centres unmarked) [Compound 45]	0.023 nM	0.028 nM	0.04 nM	0.03 nM	0.06 nM	0.3 nM	8 nM
COC(=O)N[C@H](C(=O)N1[C@H](c2nc3ccc4cc(-c5ccc(-c6cnc([C@@H]7C[C@@]8(CCCOC8)CN7C(=O)[C@@H](NC(=O)OC)C7C[C@@H](C)O[C@H](C)C7)[nH]6)cc5)ccc4c3[nH]2)C[C@@H]2CCC[C@@H]21)C(C)C (some centres unmarked) [Compound 43]	0.015 nM	0.023 nM	0.04 nM	0.03 nM	0.06 nM	0.04 nM	2 nM
